{"source": "patent US20140130208A1", "about": "“METHODS AND MEANS TO PRODUCE ABIOTIC STRESS TOLERANT PLANTS” (VIB VZW, priority 2011, published 2014)", "key": {"[1]": {"system": "Arabidopsis thaliana third true leaf", "experiment": "Ploidy analysis of leaf 3 by flow cytometry (endoreduplication onset)", "format": "in vivo", "details": "transfer at 9 DAS to 25 mM mannitol or 5 μM ACC", "description": "Arabidopsis seedlings were germinated and grown on nylon meshes overlaying control medium until 9 days after stratification (DAS), when the third true leaf is fully proliferating (Skirycz et al., 2010), and subsequently transferred to control or mannitol-containing medium (FIGS. 1A to 10). Kinematic analysis was performed, whereby leaves were harvested daily throughout development of leaf 3 (9-20 DAS) and based on drawings of the abaxial epidermis cell number, cell area, number of guard cells and cell division and cell expansion rates were calculated (De Veylder et al., 2001). […] Leaf and plant morphology were not altered by mannitol (FIG. 2C). Cell expansion was also affected by stress and the reduced final leaf area was a combination of fewer and smaller cells (FIG. 2D). The stomatal index, which represents the number of stomata as a fraction of the total number of cells, was reduced as well (FIG. 2E). To learn more about the mechanisms underlying the rapid reduction of cell division upon stress onset, we harvested leaf samples daily after transfer. […]\nFor flow cytometry analysis, nuclei were extracted by chopping 4-32 leaves with a razor blade in 1 ml of 45 mM MgCl2, 30 mM sodium citrate, 20 mM 3-(N-morpholino)propanesulfonic acid, pH 7, and 1% Triton X-100 (Galbraith et al., 1983). […] The nuclei were analyzed with a CyFlow flow cytometer with the FloMax Software (Partec)."}, "[2]": {"system": "CYCB1;1:Dbox-GUS reporter line", "experiment": "CYCB1;1:DBox-GUS staining of mitotic activity in leaf 3", "format": "in vivo, Arabidopsis thaliana", "details": "48 h after transfer to 25 mM mannitol or 5 μM ACC", "description": "Arabidopsis seedlings were germinated and grown on nylon meshes overlaying control medium until 9 days after stratification (DAS), when the third true leaf is fully proliferating (Skirycz et al., 2010), and subsequently transferred to control or mannitol-containing medium (FIGS. 1A to 10). Kinematic analysis was performed, whereby leaves were harvested daily throughout development of leaf 3 (9-20 DAS) and based on drawings of the abaxial epidermis cell number, cell area, number of guard cells and cell division and cell expansion rates were calculated (De Veylder et al., 2001). […] Leaf and plant morphology were not altered by mannitol (FIG. 2C). Cell expansion was also affected by stress and the reduced final leaf area was a combination of fewer and smaller cells (FIG. 2D). The stomatal index, which represents the number of stomata as a fraction of the total number of cells, was reduced as well (FIG. 2E). To learn more about the mechanisms underlying the rapid reduction of cell division upon stress onset, we harvested leaf samples daily after transfer. As a measure of cellular differentiation, the ploidy distribution was examined by flow cytometry. […] In stressed leaves, 4C nuclei started to accumulate approximately one day earlier than in controls at the expense of 2C nuclei (FIG. 3A). […]"}, "[3]": {"system": "Arabidopsis thaliana leaf 3", "experiment": "Leaf 3 area of ACC deaminase transgenic lines and wild type after 48 hours on mild mannitol stress", "format": "in vivo", "details": "wild type of the pGRF5::bACD experiment; 48 hours on 25 mM mannitol", "excerpt": "In this experiment we aimed for a downregulation of the ethylene signaling pathway only in proliferating leaf cells (chimeric genes with 2 different meristematic promoters: p4TM1 and pGR5) as compared to a downregulation of the ethylene signaling in the entire plant (chimeric gene with the […] promoter). The transgene which was used for downregulation of the ethylene signaling was the ACC deaminase (a bacterial form and a plant form), an enzyme that degrades the ethylene precursor ACC. […]\nPlant were transferred to plates containing 25 mM mannitol, hereby exposing them to mild mannitol stress, at a stage where the third leaf is fully proliferating, allowing to study the response of proliferating leaf cells to stress. After 48 hours on mild mannitol stress, leaf 3 was microdissected and its size was measured to calculate the extent of growth inhibition. […]\nThe plant growth and stress set-up was the same as previously described (Skirycz et al (2011) Plant Cell 23: 1876-1888). […] Slides were photographed, and leaf area was measured using ImageJ 1.41o."}}}
{"smiles": "OC[C@@H](O)[C@@H](O)[C@H](O)[C@H](O)CO", "note": "[mannitol]", "values": [{"measurement": "endoreduplication onset", "setting": "[1]", "value": "faster onset of endoreduplication"}, {"measurement": "number of mitotic cells (CYCB1;1:DBox-GUS activity)", "setting": "[2]", "value": "reduced number of mitotic cells"}, {"measurement": "growth inhibition of leaf 3 area", "setting": "[3]", "value": "about 10%"}]}
